Assay results taken from ChEMBL document CHEMBL3045868, “Synthesis and antibacterial activities of para-alkoxy phenyl--ketoaldehyde derivatives” (Med Chem Res, 2013).

Legend:
Staphylococcus aureus [1] = assay: Bactericidal activity against Staphylococcus aureus clinical isolate 6 after 24 hr; assay type: functional; conditions: isolate 6, 24 h
Staphylococcus aureus [2] = assay: Antibacterial activity against Staphylococcus aureus clinical isolate 9 assessed as growth inhibition after 16 to 18 hr by NCCLS agar dilution method; assay type: functional
Staphylococcus aureus [3] = assay: Antibacterial activity against Staphylococcus aureus clinical isolate 18 assessed as growth inhibition at pH 9 after 16 to 18 hr by NCCLS agar dilution method; assay type: functional
Staphylococcus aureus [4] = assay: Bactericidal activity against Staphylococcus aureus clinical isolate after 24 hr; assay type: functional
Helicobacter pylori [5] = assay: Antibacterial activity against Helicobacter pylori 05-12 assessed as growth inhibition after 16 to 18 hr NCCLS agar dilution method; assay type: functional
Staphylococcus aureus [6] = assay: Antibacterial activity against Staphylococcus aureus clinical isolate 5 assessed as growth inhibition after 16 to 18 hr by NCCLS agar dilution method; assay type: functional
Staphylococcus aureus [7] = assay: Antibacterial activity against Staphylococcus aureus clinical isolate 1 assessed as growth inhibition after 16 to 18 hr by NCCLS agar dilution method; assay type: functional
Staphylococcus aureus [8] = assay: Antibacterial activity against Staphylococcus aureus clinical isolate 2 assessed as growth inhibition at pH 5 after 16 to 18 hr by NCCLS agar dilution method; assay type: functional
[9] = Acute toxicity in KM Mus musculus (mouse) administered through intragastrically measured for 1 week; assay type: organism-based; conditions: in vivo, po
Staphylococcus aureus [10] = assay: Antibacterial activity against Staphylococcus aureus clinical isolate 1 assessed as growth inhibition at pH 7 after 16 to 18 hr by NCCLS agar dilution method; assay type: functional
Staphylococcus aureus [11] = assay: Antibacterial activity against Staphylococcus aureus clinical isolate 16 assessed as growth inhibition at pH 7 after 16 to 18 hr by NCCLS agar dilution method; assay type: functional
Staphylococcus aureus [12] = assay: Antibacterial activity against Staphylococcus aureus clinical isolate 7 assessed as growth inhibition at pH 7 after 16 to 18 hr by NCCLS agar dilution method; assay type: functional
Staphylococcus aureus [13] = assay: Antibacterial activity against Staphylococcus aureus clinical isolate 7 assessed as growth inhibition after 16 to 18 hr by NCCLS agar dilution method; assay type: functional
Helicobacter pylori [14] = assay: Antibacterial activity against Helicobacter pylori 05-14 assessed as growth inhibition after 16 to 18 hr NCCLS agar dilution method; assay type: functional
Staphylococcus aureus [15] = assay: Antibacterial activity against Staphylococcus aureus clinical isolate 5 assessed as growth inhibition at pH 7 after 16 to 18 hr by NCCLS agar dilution method; assay type: functional
Helicobacter pylori [16] = assay: Antibacterial activity against Helicobacter pylori assessed as growth inhibition after 16 to 18 hr NCCLS agar dilution method; assay type: functional
Staphylococcus aureus [17] = assay: Antibacterial activity against Staphylococcus aureus clinical isolate 2 assessed as growth inhibition after 16 to 18 hr by NCCLS agar dilution method; assay type: functional
Staphylococcus aureus [18] = assay: Bactericidal activity against Staphylococcus aureus clinical isolate 2 after 24 hr; assay type: functional; conditions: isolate 2, 24 h
Staphylococcus aureus [19] = assay: Antibacterial activity against Staphylococcus aureus clinical isolate 4 assessed as growth inhibition at pH 9 after 16 to 18 hr by NCCLS agar dilution method; assay type: functional
Staphylococcus aureus [20] = assay: Antibacterial activity against Staphylococcus aureus ATCC 25923 assessed as growth inhibition after 16 to 18 hr by NCCLS agar dilution method; assay type: functional
Staphylococcus aureus [21] = assay: Bactericidal activity against methicillin-resistant Staphylococcus aureus isolate 2 after 24 hr; assay type: functional; conditions: isolate 2, 24 h
Staphylococcus aureus [22] = assay: Antibacterial activity against Staphylococcus aureus clinical isolate 1 assessed as growth inhibition at pH 9 after 16 to 18 hr by NCCLS agar dilution method; assay type: functional
Staphylococcus aureus [23] = assay: Antibacterial activity against Staphylococcus aureus clinical isolate 2 assessed as growth inhibition at pH 7 after 16 to 18 hr by NCCLS agar dilution method; assay type: functional
Staphylococcus aureus [24] = assay: Antibacterial activity against Staphylococcus aureus clinical isolate 2 assessed as growth inhibition at pH 9 after 16 to 18 hr by NCCLS agar dilution method; assay type: functional
Escherichia coli = assay: Antibacterial activity against Escherichia coli ATCC 25922 assessed as growth inhibition after 16 to 18 hr NCCLS agar dilution method; assay type: functional
Staphylococcus aureus [25] = assay: Antibacterial activity against Staphylococcus aureus clinical isolate 17 assessed as growth inhibition at pH 5 after 16 to 18 hr by NCCLS agar dilution method; assay type: functional
Helicobacter pylori [26] = assay: Antibacterial activity against Helicobacter pylori 06-4 assessed as growth inhibition after 16 to 18 hr NCCLS agar dilution method; assay type: functional
Staphylococcus aureus [27] = assay: Antibacterial activity against Staphylococcus aureus clinical isolate 12 assessed as growth inhibition at pH 5 after 16 to 18 hr by NCCLS agar dilution method; assay type: functional
Helicobacter pylori [28] = assay: Antibacterial activity against Helicobacter pylori 06-5 assessed as growth inhibition after 16 to 18 hr NCCLS agar dilution method; assay type: functional
Staphylococcus aureus [29] = assay: Antibacterial activity against Staphylococcus aureus clinical isolate 5 assessed as growth inhibition at pH 5 after 16 to 18 hr by NCCLS agar dilution method; assay type: functional
Staphylococcus aureus [30] = assay: Antibacterial activity against Staphylococcus aureus clinical isolate 13 assessed as growth inhibition at pH 9 after 16 to 18 hr by NCCLS agar dilution method; assay type: functional
Staphylococcus aureus [31] = assay: Antibacterial activity against Staphylococcus aureus clinical isolate assessed as growth inhibition at pH 9 after 16 to 18 hr by NCCLS agar dilution method; assay type: functional
Helicobacter pylori [32] = assay: Antibacterial activity against Helicobacter pylori 06-1 assessed as growth inhibition after 16 to 18 hr NCCLS agar dilution method; assay type: functional
Staphylococcus aureus [33] = assay: Antibacterial activity against Staphylococcus aureus clinical isolate 24 assessed as growth inhibition at pH 9 after 16 to 18 hr by NCCLS agar dilution method; assay type: functional
Staphylococcus aureus [34] = assay: Antibacterial activity against Staphylococcus aureus clinical isolate 4 assessed as growth inhibition at pH 5 after 16 to 18 hr by NCCLS agar dilution method; assay type: functional
Staphylococcus aureus [35] = assay: Bactericidal activity against methicillin-resistant Staphylococcus aureus isolate 3 after 24 hr; assay type: functional; conditions: isolate 3, 24 h
Staphylococcus aureus [36] = assay: Antibacterial activity against Staphylococcus aureus clinical isolate 11 assessed as growth inhibition at pH 9 after 16 to 18 hr by NCCLS agar dilution method; assay type: functional
Staphylococcus aureus [37] = assay: Antibacterial activity against Staphylococcus aureus clinical isolate 22 assessed as growth inhibition at pH 9 after 16 to 18 hr by NCCLS agar dilution method; assay type: functional
Staphylococcus aureus [38] = assay: Bactericidal activity against methicillin-resistant Staphylococcus aureus after 24 hr; assay type: functional
Helicobacter pylori [39] = assay: Antibacterial activity against Helicobacter pylori 06-3 assessed as growth inhibition after 16 to 18 hr NCCLS agar dilution method; assay type: functional
Staphylococcus aureus [40] = assay: Antibacterial activity against Staphylococcus aureus clinical isolate 6 assessed as growth inhibition at pH 9 after 16 to 18 hr by NCCLS agar dilution method; assay type: functional
Staphylococcus aureus [41] = assay: Antibacterial activity against Staphylococcus aureus clinical isolate 24 assessed as growth inhibition at pH 5 after 16 to 18 hr by NCCLS agar dilution method; assay type: functional
Staphylococcus aureus [42] = assay: Antibacterial activity against Staphylococcus aureus clinical isolate 22 assessed as growth inhibition at pH 5 after 16 to 18 hr by NCCLS agar dilution method; assay type: functional
Staphylococcus aureus [43] = assay: Antibacterial activity against Staphylococcus aureus clinical isolate 6 assessed as growth inhibition after 16 to 18 hr by NCCLS agar dilution method; assay type: functional

CO/N=C/CC(=O)c1ccc(OC)cc1
5000 mg/kg: MTD at 168 h [9]
> 64 µg/mL: MIC (Escherichia coli)
2 µg/mL: MIC (Staphylococcus aureus [20])
128 µg/mL: MBC50 (60.1); MBC90 (60.2) (Staphylococcus aureus [4]; read-out: MIC90)
8 µg/mL: MIC (Staphylococcus aureus [6]) | MIC (Staphylococcus aureus [11]) | MIC (Staphylococcus aureus [12]) | MIC (Staphylococcus aureus [13]) | MIC (Staphylococcus aureus [19]) | MIC (Staphylococcus aureus [24]) | MIC (Staphylococcus aureus [30]) | MIC50 (Staphylococcus aureus [31]) | MIC (Staphylococcus aureus [33]) | MIC (Staphylococcus aureus [36]) | MIC (Staphylococcus aureus [37]) | MIC (Staphylococcus aureus [40]) | MIC (Staphylococcus aureus [43])
16 µg/mL: MIC (Staphylococcus aureus [2]) | MIC (Staphylococcus aureus [3]) | MIC (Staphylococcus aureus [7]) | MIC (Helicobacter pylori [14]) | MIC (Staphylococcus aureus [15]) | MIC (Staphylococcus aureus [17]) | MIC (Staphylococcus aureus [22]) | MIC (Staphylococcus aureus [23]) | MIC (Staphylococcus aureus [25]) | MIC (Staphylococcus aureus [27]) | MIC (Staphylococcus aureus [29]) | MIC90 (Staphylococcus aureus [31]) | MIC (Helicobacter pylori [32]) | MIC (Staphylococcus aureus [42])
64 µg/mL: MBC (Staphylococcus aureus [1]) | MBC50 (60.1); MBC90 (60.2) (Staphylococcus aureus [4]; read-out: MIC50) | MBC (Staphylococcus aureus [18]) | MIC (Staphylococcus aureus [34]) | MIC (Staphylococcus aureus [41])
256 µg/mL: MBC (Staphylococcus aureus [21]) | MBC (Staphylococcus aureus [35]) | MBC50 (Staphylococcus aureus [38]) | MBC90 (Staphylococcus aureus [38])
32 µg/mL: MIC (Staphylococcus aureus [8]) | MIC (Staphylococcus aureus [10]) | MIC50 (Helicobacter pylori [16]) | MIC90 (Helicobacter pylori [16]) | MIC (Helicobacter pylori [26]) | MIC (Helicobacter pylori [28]) | MIC (Helicobacter pylori [39])
> 128 µg/mL: MIC (Helicobacter pylori [5])
